This note sets out measurements from patent publication US12448389B2, “BRM targeting compounds and associated methods of use” (Prelude Therapeutics Incorporated, priority 2020, dated 2025).

In one assay the target is T1, SMARCA2-HiBiT (Homo sapiens, UniProt P51531).
T1 construct: SMARCA2-HiBiT knock-in Hela monoclonal cell (CS302366); host or cells: HeLa monoclonal knock-in line (CRISPR HiBiT knock-in at the endogenous locus, heterozygous)
Nature of the assay: SMARCA2 HiBiT degradation assay in HeLa cells. Type of assay: cell-based. Conditions: 18 hours incubation; for DC50: read-out: HeLa_HiBit-SM2 DC50; for Dmax: HeLa, read-out: HeLa-HiBit-SM2 Dmax (%). The essentials:
(§1)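 HeLa monoclonal lines with heterozygous HiBiT knock-in were seeded at 2500 cells/well in EMEM with 10% FBS and treated with compound for 18 h at 37 °C. Remaining tagged protein was measured by Nano-Glo HiBiT lytic luminescence after 30–60 min at RT, and values came from curve fitting.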
(The HiBiT peptide binds its large partner to form an active luciferase.)

In another assay the target is T2, SMARCA4-HiBiT (Homo sapiens, UniProt P51532).
T2 construct: SMARCA4-HiBiT knock-in Hela monoclonal cell (CS3023226); host or cells: HeLa monoclonal knock-in line (CRISPR HiBiT knock-in at the endogenous locus, heterozygous)
T2 sequence (P51532 whole entry): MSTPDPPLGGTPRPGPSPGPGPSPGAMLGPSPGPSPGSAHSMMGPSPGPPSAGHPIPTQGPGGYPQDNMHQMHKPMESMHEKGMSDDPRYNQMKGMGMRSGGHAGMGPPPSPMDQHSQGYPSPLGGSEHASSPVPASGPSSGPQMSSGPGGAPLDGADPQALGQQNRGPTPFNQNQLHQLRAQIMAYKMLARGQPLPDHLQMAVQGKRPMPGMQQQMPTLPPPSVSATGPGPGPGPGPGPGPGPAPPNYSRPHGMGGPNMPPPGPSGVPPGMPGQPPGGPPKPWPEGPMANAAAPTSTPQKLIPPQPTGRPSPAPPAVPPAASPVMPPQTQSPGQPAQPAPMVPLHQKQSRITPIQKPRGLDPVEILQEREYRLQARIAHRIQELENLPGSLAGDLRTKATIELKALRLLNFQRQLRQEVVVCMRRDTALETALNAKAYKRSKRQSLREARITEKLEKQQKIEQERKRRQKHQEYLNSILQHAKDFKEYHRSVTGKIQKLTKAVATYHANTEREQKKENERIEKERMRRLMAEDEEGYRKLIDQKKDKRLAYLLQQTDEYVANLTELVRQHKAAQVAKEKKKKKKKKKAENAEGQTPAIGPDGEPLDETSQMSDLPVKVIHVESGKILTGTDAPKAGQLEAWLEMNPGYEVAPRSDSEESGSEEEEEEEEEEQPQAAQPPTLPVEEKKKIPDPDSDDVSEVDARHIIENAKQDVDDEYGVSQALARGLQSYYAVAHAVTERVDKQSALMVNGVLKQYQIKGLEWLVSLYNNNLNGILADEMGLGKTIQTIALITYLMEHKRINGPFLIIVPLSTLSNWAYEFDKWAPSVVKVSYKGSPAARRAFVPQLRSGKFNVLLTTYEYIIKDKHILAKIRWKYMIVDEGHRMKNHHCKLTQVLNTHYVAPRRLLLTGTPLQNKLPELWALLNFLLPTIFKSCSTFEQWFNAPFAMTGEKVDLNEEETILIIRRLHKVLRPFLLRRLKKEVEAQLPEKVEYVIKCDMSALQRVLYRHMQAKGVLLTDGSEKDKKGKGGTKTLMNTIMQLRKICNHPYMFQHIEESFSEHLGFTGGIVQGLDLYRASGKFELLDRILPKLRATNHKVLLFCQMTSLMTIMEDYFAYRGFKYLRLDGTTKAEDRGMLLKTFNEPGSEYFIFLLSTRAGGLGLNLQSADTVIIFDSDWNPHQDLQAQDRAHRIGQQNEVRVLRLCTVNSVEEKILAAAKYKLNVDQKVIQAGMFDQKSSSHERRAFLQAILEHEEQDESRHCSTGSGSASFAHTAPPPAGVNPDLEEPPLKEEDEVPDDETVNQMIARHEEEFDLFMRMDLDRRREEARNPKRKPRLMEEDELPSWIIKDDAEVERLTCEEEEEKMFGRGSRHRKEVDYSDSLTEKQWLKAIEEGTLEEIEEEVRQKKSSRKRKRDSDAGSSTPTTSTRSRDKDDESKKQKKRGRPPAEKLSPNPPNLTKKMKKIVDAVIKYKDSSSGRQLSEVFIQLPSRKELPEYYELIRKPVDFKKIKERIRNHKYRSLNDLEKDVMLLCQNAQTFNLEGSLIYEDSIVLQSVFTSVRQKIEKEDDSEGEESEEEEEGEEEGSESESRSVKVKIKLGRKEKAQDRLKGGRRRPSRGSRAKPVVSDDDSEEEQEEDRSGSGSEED
The experiment in a line: SMARCA4 HiBiT degradation assay in HeLa cells. It is filed as cell-based. Conditions: 18 hours incubation; for DC50: read-out: HeLa-HiBit-SM4 DC50; for Dmax: HeLa, read-out: HeLa-HiBit-SM4 Dmax (%). The essentials:
as §1

T1 sequence (P51531 whole entry): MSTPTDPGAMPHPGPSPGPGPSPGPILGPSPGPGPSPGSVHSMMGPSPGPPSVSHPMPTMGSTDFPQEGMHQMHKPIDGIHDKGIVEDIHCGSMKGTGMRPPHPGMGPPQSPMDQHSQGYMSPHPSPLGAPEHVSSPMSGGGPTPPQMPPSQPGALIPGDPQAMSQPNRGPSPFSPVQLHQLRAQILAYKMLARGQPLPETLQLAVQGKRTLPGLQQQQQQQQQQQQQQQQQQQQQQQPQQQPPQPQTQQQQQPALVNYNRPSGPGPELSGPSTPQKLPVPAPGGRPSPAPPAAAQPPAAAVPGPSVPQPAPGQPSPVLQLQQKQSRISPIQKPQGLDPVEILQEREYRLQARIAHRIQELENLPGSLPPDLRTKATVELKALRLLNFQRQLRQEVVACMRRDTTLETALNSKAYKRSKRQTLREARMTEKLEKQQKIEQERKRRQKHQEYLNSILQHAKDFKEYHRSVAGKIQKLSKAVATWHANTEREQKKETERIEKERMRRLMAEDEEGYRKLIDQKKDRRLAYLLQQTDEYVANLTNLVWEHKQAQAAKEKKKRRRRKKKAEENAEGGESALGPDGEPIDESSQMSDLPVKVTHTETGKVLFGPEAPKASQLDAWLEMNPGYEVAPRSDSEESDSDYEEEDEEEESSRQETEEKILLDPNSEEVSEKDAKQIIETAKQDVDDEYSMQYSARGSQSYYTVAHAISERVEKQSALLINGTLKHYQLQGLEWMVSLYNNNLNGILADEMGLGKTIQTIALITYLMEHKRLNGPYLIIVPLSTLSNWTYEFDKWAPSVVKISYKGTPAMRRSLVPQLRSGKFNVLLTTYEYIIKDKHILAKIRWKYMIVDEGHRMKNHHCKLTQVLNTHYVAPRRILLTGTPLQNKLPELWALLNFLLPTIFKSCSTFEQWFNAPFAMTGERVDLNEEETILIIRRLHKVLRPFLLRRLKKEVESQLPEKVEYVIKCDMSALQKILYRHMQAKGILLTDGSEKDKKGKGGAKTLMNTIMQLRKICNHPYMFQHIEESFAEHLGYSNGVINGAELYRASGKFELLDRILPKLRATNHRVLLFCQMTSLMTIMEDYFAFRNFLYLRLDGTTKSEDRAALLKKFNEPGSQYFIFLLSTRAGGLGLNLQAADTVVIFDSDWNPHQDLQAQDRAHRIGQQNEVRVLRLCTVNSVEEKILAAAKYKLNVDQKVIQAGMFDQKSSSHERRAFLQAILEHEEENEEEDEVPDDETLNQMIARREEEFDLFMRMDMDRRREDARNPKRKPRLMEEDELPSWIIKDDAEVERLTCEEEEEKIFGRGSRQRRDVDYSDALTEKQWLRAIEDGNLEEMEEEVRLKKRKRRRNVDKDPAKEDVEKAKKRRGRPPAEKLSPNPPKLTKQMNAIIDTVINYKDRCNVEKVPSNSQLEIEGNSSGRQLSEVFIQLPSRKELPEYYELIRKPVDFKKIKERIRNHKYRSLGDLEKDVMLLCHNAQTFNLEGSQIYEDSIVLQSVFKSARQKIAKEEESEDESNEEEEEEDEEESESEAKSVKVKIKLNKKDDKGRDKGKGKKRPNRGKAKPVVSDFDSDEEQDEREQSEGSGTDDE

For orientation: DC50 means the midpoint of the concentration-degradation curve. In general, Dmax refers to the greatest extent of degradation seen. As for `O=C1CCC(N2Cc3ccc(N4CCC(CN5CCC(OC(=O)N6CCN7c8cc(-c9ccccc9O)nnc8NC[C@H]7C6)CC5)CC4)cc3C2=O)C(=O)N1` (stereo partly drawn) [Example 85, l-((l-(2-(2,6-dioxopiperidin-3-yl)-3-oxoisoindolin-5-yl)piperidin-4-yl)methyl)piperidin-4-yl (6aS)-2-(2-hydroxyphenyl)-5,6,6a,7,9,10-hexahydro-8H-pyrazino[1′,2′:4,5]pyrazino[2,3-c]pyridazine-8-carboxylate], the half-maximal degradation concentration (DC50) on SMARCA2-HiBiT and on SMARCA4-HiBiT was < 10 nM in each case. Moreover, the figures for the greatest degradation seen (Dmax) on SMARCA2-HiBiT and at SMARCA4-HiBiT were > 85% and 75 to 85%, respectively.

Consider `O=C1CCC(N2C(=O)c3ccc(N4CC(CN5CCC(C(=O)N6CCN7c8cc(-c9ccccc9O)nnc8NC[C@H]7C6)CC5)C4)cc3C2=O)C(=O)N1` (stereo partly drawn) [Example 86, 2-(2,6-dioxopiperidin-3-yl)-5-(3-((4-((S)-2-(2-hydroxyphenyl)-6,6a,7,8,9,10-hexahydro-5H-pyrazino[1′,2′:4,5]pyrazino[2,3-c]pyridazine-8-carbonyl)piperidin-1-yl)methyl)azetidin-1-yl)isoindoline-1,3-dione], for which, at SMARCA2-HiBiT, the DC50 was < 10 nM and the Dmax is > 85%. Also, on SMARCA4-HiBiT, the DC50 is 10 to 100 nM and the greatest degradation seen (Dmax) was in the range of 50 to 75%.

In the case of `CC1(C)CN(c2ccc3c(c2)C(=O)N(C2CCC(=O)NC2=O)C3=O)CCC1CN1CCC(CN2CCN3c4cc(-c5ccccc5O)nnc4NC[C@H]3C2)CC1` (stereo partly drawn) [Example 88, 2-(2,6-dioxopiperidin-3-yl)-5-(4-((4-(((S)-2-(2-hydroxyphenyl)-5,6,6a,7,9,10-hexahydro-8H-pyrazino[1′,2′:4,5]pyrazino[2,3-c]pyridazin-8-yl)methyl)piperidin-1-yl)methyl)-3,3-dimethylpiperidin-1-yl)isoindoline-1,3-dione], the 50% degradation concentration (DC50) at SMARCA2-HiBiT and on SMARCA4-HiBiT was < 10 nM in each case. Besides, the Dmax at SMARCA2-HiBiT and on SMARCA4-HiBiT was > 85% throughout.

`COC1(CN2C[C@@H]3[C@@H](CN4CCN5c6cc(-c7ccccc7O)nnc6NC[C@H]5C4)[C@@H]3C2)CCN(c2ccc3c(c2)C(=O)N(C2CCC(=O)NC2=O)C3=O)CC1` (stereo partly drawn) [Example 89, 2-(2,6-dioxopiperidin-3-yl)-5-(4-(((1R,5S,6s)-6-(((S)-2-(2-hydroxyphenyl)-5,6,6a,7,9,10-hexahydro-8H-pyrazino[1′,2′:4,5]pyrazino[2,3-c]pyridazin-8-yl)methyl)-3-azabicyclo[3.1.0]hexan-3-yl)methyl)-4-methoxypiperidin-1-yl)isoindoline-1,3-dione]: at SMARCA2-HiBiT, the DC50 was < 10 nM and the Dmax was in the range of 75 to 85%. Moreover, on SMARCA4-HiBiT, the DC50 is < 10 nM and the greatest degradation seen (Dmax) lay in the range of 50 to 75%.

For `O=C1CCC(N2C(=O)c3ccc(N4CCC(N5C[C@@H]6[C@@H](CN7CCN8c9cc(-c%10ccccc%10O)nnc9NC[C@H]8C7)[C@@H]6C5)CC4)cc3C2=O)C(=O)N1` (stereo partly drawn) [Example 90, 2-(2,6-dioxopiperidin-3-yl)-5-(4-((1R,5S,6s)-6-(((S)-2-(2-hydroxyphenyl)-5,6,6a,7,9,10-hexahydro-8H-pyrazino[1′,2′:4,5]pyrazino[2,3-c]pyridazin-8-yl)methyl)-3-azabicyclo[3.1.0]hexan-3-yl)piperidin-1-yl)isoindoline-1,3-dione], at SMARCA2-HiBiT, the DC50 was < 10 nM and the maximal degradation (Dmax) lay within 50 to 75%. Also, at SMARCA4-HiBiT, the half-maximal degradation concentration (DC50) was in the range of 10 to 100 nM and the maximal degradation (Dmax) lay in the range of 50 to 75%.

Regarding `CC1(CN2C[C@@H]3[C@@H](CN4CCN5c6cc(-c7ccccc7O)nnc6NC[C@H]5C4)[C@@H]3C2)CCN(c2ccc3c(c2)C(=O)N(C2CCC(=O)NC2=O)C3=O)CC1` (stereo partly drawn) [Example 91, 2-(2,6-dioxopiperidin-3-yl)-5-(4-(((1R,5S,6r)-6-(((S)-2-(2-hydroxyphenyl)-5,6,6a,7,9,10-hexahydro-8H-pyrazino[1′,2′:4,5]pyrazino[2,3-c]pyridazin-8-yl)methyl)-3-azabicyclo[3.1.0]hexan-3-yl)methyl)-4-methylpiperidin-1-yl)isoindoline-1,3-dione], at SMARCA2-HiBiT, the DC50 was < 10 nM and the greatest degradation seen (Dmax) was > 85%. In addition, at SMARCA4-HiBiT, the 50% degradation concentration (DC50) was in the range of 10 to 100 nM and the maximal degradation (Dmax) lay in the range of 50 to 75%.

Consider `O=C1CCC(N2Cc3cc(N4CCC(CN5C[C@@H]6[C@H](C5)[C@H]6CN5CCN6c7cc(-c8ccccc8O)nnc7NC[C@H]6C5)CC4)ccc3C2=O)C(=O)N1` (stereo partly drawn) [Example 92, 3-(5-(4-(((1R,5S,6r)-6-(((S)-2-(2-hydroxyphenyl)-5,6,6a,7,9,10-hexahydro-8H-pyrazino[1′,2′:4,5]pyrazino[2,3-c]pyridazin-8-yl)methyl)-3-azabicyclo[3.1.0]hexan-3-yl)methyl)piperidin-1-yl)-1-oxoisoindolin-2-yl)piperidine-2,6-dione], for which, on SMARCA2-HiBiT, the 50% degradation concentration (DC50) was < 10 nM and the Dmax is > 85%. At SMARCA4-HiBiT, the DC50 was < 10 nM and the Dmax was 75 to 85%.

For `O=C1CCC(N2C(=O)c3ccc(N4CCC5(CC4)CC(N4C[C@@H]6[C@@H](CN7CCN8c9cc(-c%10ccccc%10O)nnc9NC[C@H]8C7)[C@@H]6C4)C5)cc3C2=O)C(=O)N1` (stereo partly drawn) [Example 93, 2-(2,6-dioxopiperidin-3-yl)-5-(2-((1R,5S,6s)-6-(((S)-2-(2-hydroxyphenyl)-5,6,6a,7,9,10-hexahydro-8H-pyrazino[1′,2′:4,5]pyrazino[2,3-c]pyridazin-8-yl)methyl)-3-azabicyclo[3.1.0]hexan-3-yl)-7-azaspiro[3.5]nonan-7-yl)isoindoline-1,3-dione], on SMARCA2-HiBiT, the DC50 was < 10 nM and the Dmax is > 85%. At SMARCA4-HiBiT, the DC50 was < 10 nM and the greatest degradation seen (Dmax) was > 85%.

Regarding `O=C1CCC(N2C(=O)c3ccc(N4CCCC5(CCN(CCN6CCN7c8cc(-c9ccccc9O)nnc8NC[C@H]7C6)CC5)C4)cc3C2=O)C(=O)N1` (stereo partly drawn) [Example 94, 2-(2,6-dioxopiperidin-3-yl)-5-(9-(2-((S)-2-(2-hydroxyphenyl)-5,6,6a,7,9,10-hexahydro-8H-pyrazino[1′,2′:4,5]pyrazino[2,3-c]pyridazin-8-yl)ethyl)-2,9-diazaspiro [5.5]undecan-2-yl) isoindoline-1,3-dione], the half-maximal degradation concentration (DC50) on SMARCA2-HiBiT and on SMARCA4-HiBiT was < 10 nM throughout. Moreover, the Dmax on SMARCA2-HiBiT and at SMARCA4-HiBiT was 50 to 75% each time.

Turning to `O=C1CCC(N2Cc3ccc(N4CCC(CN5CCN(C(=O)N6CCN7c8cc(-c9ccccc9O)nnc8NC[C@H]7C6)CC5)CC4)cc3C2=O)C(=O)N1` (stereo partly drawn) [Example 95, 3-(6-(4-((4-((S)-2-(2-hydroxyphenyl)-6,6a,7,8,9,10-hexahydro-5H-pyrazino [1′,2′:4,5]pyrazino[2,3-c]pyridazine-8-carbonyl)piperazin-1-yl)methyl)piperidin-1-yl)-1-oxoisoindolin-2-yl)piperidine-2,6-dione], on SMARCA2-HiBiT, the DC50 was < 10 nM and the maximal degradation (Dmax) is > 85%. Besides, on SMARCA4-HiBiT, the DC50 is < 10 nM and the Dmax fell in the range of 75 to 85%.

`O=C1CCC(N2Cc3ccc(N4CCC(CN5C[C@@H]6[C@H](C5)[C@H]6C(=O)N5CCN6c7cc(-c8ccccc8O)nnc7NC[C@H]6C5)CC4)cc3C2=O)C(=O)N1` (stereo partly drawn) [Example 96, 3-(6-(4-(((1R,5S,6r)-6-((S)-2-(2-hydroxyphenyl)-6,6a,7,8,9,10-hexahydro-5H-pyrazino[1′,2′:4,5]pyrazino[2,3-c]pyridazine-8-carbonyl)-3-azabicyclo[3.1.0]hexan-3-yl)methyl)piperidin-1-yl)-1-oxoisoindolin-2-yl)piperidine-2,6-dione]: at SMARCA2-HiBiT, the 50% degradation concentration (DC50) was < 10 nM and the maximal degradation (Dmax) lay in the range of 50 to 75%. On SMARCA4-HiBiT, the DC50 lay in the range of 10 to 100 nM and the maximal degradation (Dmax) is ≤ 50%.

Take `O=C1CCC(N2C(=O)c3ccc(N4CC[C@@H]5CN(C6CCC(C(=O)N7CCN8c9cc(-c%10ccccc%10O)nnc9NC[C@H]8C7)CC6)C[C@H]5C4)cc3C2=O)C(=O)N1` (stereo partly drawn) [Example 97, 2-(2,6-dioxopiperidin-3-yl)-5-((3aS,7aS)-2-(4-((S)-2-(2-hydroxyphenyl)-6,6a,7,8,9,10-hexahydro-5H-pyrazino[1′,2′:4,5]pyrazino[2,3-c]pyridazine-8-carbonyl)cyclohexyl)octahydro-5H-pyrrolo[3,4-c]pyridin-5-yl) isoindoline-1,3-dione]: on SMARCA2-HiBiT, the 50% degradation concentration (DC50) was < 10 nM and the Dmax was 75 to 85%. Also, on SMARCA4-HiBiT, the half-maximal degradation concentration (DC50) was 10 to 100 nM and the greatest degradation seen (Dmax) lay in the range of 50 to 75%.

In the case of `O=C1CCC(N2C(=O)c3ccc(N4C[C@@H]5CN(C6CCC(C(=O)N7CCN8c9cc(-c%10ccccc%10O)nnc9NC[C@H]8C7)CC6)C[C@H]5C4)cc3C2=O)C(=O)N1` (stereo partly drawn) [Example 98, 2-(2,6-dioxopiperidin-3-yl)-5-((3aS,6aS)-5-(4-((S)-2-(2-hydroxyphenyl)-6,6a,7,8,9,10-hexahydro-5H-pyrazino[1′,2′:4,5]pyrazino[2,3-c]pyridazine-8-carbonyl)cyclohexyl)hexahydropyrrolo[3,4-c]pyrrol-2(1H)-yl) isoindoline-1,3-dione], at SMARCA2-HiBiT, the DC50 was < 10 nM and the Dmax fell in the range of 75 to 85%. Further, at SMARCA4-HiBiT, the DC50 is < 10 nM and the Dmax is > 85%.

As for `C[C@H]1CN2c3cc(-c4ccccc4O)nnc3NC[C@H]2CN1C(=O)N1CCN(CC2CCN(c3ccc4c(c3)C(=O)N(C3CCC(=O)NC3=O)C4)CC2)CC1` (stereo partly drawn) [Example 99, 3-(6-(4-((4-((6aS,9S)-2-(2-hydroxyphenyl)-9-methyl-6,6a,7,8,9,10-hexahydro-5H-pyrazino[1′,2′:4,5]pyrazino[2,3-c]pyridazine-8-carbonyl)piperazin-1-yl)methyl)piperidin-1-yl)-1-oxoisoindolin-2-yl)piperidine-2,6-dione], at SMARCA2-HiBiT, the DC50 is < 10 nM and the greatest degradation seen (Dmax) is > 85%. Further, at SMARCA4-HiBiT, the DC50 lay in the range of 10 to 100 nM and the greatest degradation seen (Dmax) was 75 to 85%.
